Broadly, the IC50 is the concentration that inhibits the measured activity by half. The low end stands for inhibition by little substance, the high end for a need for much substance. A word on the inhibition: it is how much of the control response was suppressed.

Each structure is given as a SMILES string.

Sequence of human PAI-1 (P05121 24-402): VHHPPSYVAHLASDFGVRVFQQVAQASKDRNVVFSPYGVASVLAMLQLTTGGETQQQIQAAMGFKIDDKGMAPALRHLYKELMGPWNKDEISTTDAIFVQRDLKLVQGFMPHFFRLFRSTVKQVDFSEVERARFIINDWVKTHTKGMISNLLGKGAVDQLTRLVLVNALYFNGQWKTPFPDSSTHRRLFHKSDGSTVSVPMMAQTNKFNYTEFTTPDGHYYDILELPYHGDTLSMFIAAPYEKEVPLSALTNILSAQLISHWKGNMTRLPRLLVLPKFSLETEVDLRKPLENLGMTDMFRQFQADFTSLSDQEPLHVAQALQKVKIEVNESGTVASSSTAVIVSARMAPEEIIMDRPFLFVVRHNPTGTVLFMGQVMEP

For one assay, the target named is human PAI-1 (Homo sapiens, UniProt P05121). In words: Assay for determining the IC50 of inhibition of PAI-1 (active PAI-1 bound to tPA-coated plate, 33B8 antibody detection). The format is biochemical. The note with it: values carry suffix (K), not explained; test compounds 1-50 μM, pH 7.5. The protocol:
Assay for determining the IC50 of inhibition of PAI-1. This assay is based upon the non-SDS dissociable interaction between Tpa and active PAI-1. Assay plates are initially coated with human Tpa (10 μg/ml). Test compounds are dissolved in DMSO at 10 Mm, then diluted with physiologic buffer (Ph 7.5) to a final concentration of 1-50 μM. The test compounds are incubated with human PAI-1 (50 ng/ml) for 15 minutes at room temperature. The Tpa-coated plate is washed with a solution of 0.05% Tween 20 and 0.1% BSA, then the plate is blocked with a solution of 3% BSA. An aliquot of the test compound/PAI-1 solution is then added to the Tpa-coated plate, incubated at room temperature for 1 hour, and washed. Active PAI-1 bound to the plate is assessed by adding an aliquot of a 1:1000 dilution of the 33B8 monoclonal antibody against human PAI-1, and incubating the plate at room temperature for 1 hour (Molecular Innovations, Royal Oak, Mich.). The plate is again washed, and a solution of goat anti-mouse IgG-alkaline phosphatase conjugate is added at a 1:50,000 dilution in goat serum. The plate is incubated 30 minutes at room temperature, washed, and a solution of alkaline phosphatase substrate is added. The plate is incubated 45 minutes at room temperature, and color development is determined at OD405 nm. The quantitation of active PAI-1 bound to Tpa at varying concentrations of the test compound is used to determine the IC50. Results are analyzed using a logarithmic best-fit equation. The assay sensitivity is 5 ng/ml of human PAI-1 as determined from a standard curve ranging from 0-100 ng/ml.
In turn, `O=C(O)CO/N=C/c1cn(Cc2ccccc2)c2ccc(OCc3ccc(C(F)(F)F)cc3)cc12` [Compound 3, ({[(1E)-(1-benzyl-5-{[4-(trifluoromethyl)benzyl]oxy}-1H-indol-3-yl)methylidene]amino}oxy)acetic acid] showed an IC50 of 1.85 µM.

Take `O=C(O)CO/N=C/c1cn(Cc2ccccc2)c2ccc(OCc3ccc(Br)cc3)cc12` [Compound 9, {[((1E)-{1-benzyl-5-[(4-bromobenzyl)oxy]-1H-indol-3-yl}methylidene)amino]oxy}acetic acid]: inhibition was half-maximal at 16.9 µM (IC50). On to `Cn1cc(/C=N/OCC(=O)O)c2cc(OCc3ccc(C(F)(F)F)cc3)ccc21` [Compound 32, ({[(1E)-(1-methyl-5-{[4-(trifluoromethyl)benzyl]oxy}-1H-indol-3-yl)methylidene]amino}oxy)acetic acid], for which the IC50 is 9.36 µM.

For a further assay, the target named is T1, recombinant human plasminogen activator inhibitor-1 (PAI-1) (Homo sapiens, UniProt P05121).
T1 construct: purchased Molecular Innovations, Royal Oak, Mich
T1 sequence (P05121 24-402): as above
In words: Screening for PAI-1 inhibition (residual tPA activity, Spectrozyme-tPA chromogenic substrate). The following applies: test compound at 100 Um; pH 6.6 buffer, 140 nM PAI-1, 70 nM tPA. Format: biochemical. The gist of the method: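 PAI-1 at 140 nM, pH 6.6 buffer, preincubated 1 h at room temperature with compound (1-100 μM final, ≤0.2% DMSO), then 70 nM tPA added for 30 min. Residual tPA activity read by Spectrozyme-tPA absorbance at 405 nm at 0 and 60 min. Inhibition taken as residual tPA activity.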
On to `O=C(O)CO/N=C/c1cn(Cc2ccccc2)c2ccc(OCc3ccc(C(F)(F)F)cc3)cc12` [Compound 3, ({[(1E)-(1-benzyl-5-{[4-(trifluoromethyl)benzyl]oxy}-1H-indol-3-yl)methylidene]amino}oxy)acetic acid], for which the inhibition at 100 µM is 82%. In the case of `O=C(O)CO/N=C/c1cn(Cc2ccccc2)c2ccc(OCc3ccc(Br)cc3)cc12` [Compound 9, {[((1E)-{1-benzyl-5-[(4-bromobenzyl)oxy]-1H-indol-3-yl}methylidene)amino]oxy}acetic acid], the inhibition at 100 µM was 85%.

Take `Cn1cc(/C=N/OCC(=O)O)c2cc(OCc3ccc(C(F)(F)F)cc3)ccc21` [Compound 32, ({[(1E)-(1-methyl-5-{[4-(trifluoromethyl)benzyl]oxy}-1H-indol-3-yl)methylidene]amino}oxy)acetic acid]: the inhibition at 100 µM was 82%. As for `O=C(O)CO/N=C/c1cc(OCc2ccc(Br)cc2)ccc1OCc1ccc(Br)cc1` [Compound 155, {[((1E)-{2,5-bis[(4-bromobenzyl)oxy]phenyl}methylidene)amino]oxy}acetic acid], the inhibition at 100 µM is 85%. Take `CC(C)(C)c1ccc(COc2ccc(OCc3ccc(C(C)(C)C)cc3)c(/C=N/OCC(=O)O)c2)cc1` [Compound 156, {[((1E)-{2,5-bis[(4-tert-butylbenzyl)oxy]phenyl}methylidene)amino]oxy}acetic acid]: the inhibition at 100 µM is 99%.

With `O=C(O)CO/N=C/c1cc(OCc2cccc(Cl)c2)ccc1OCc1cccc(Cl)c1` [Compound 157, {[((1E)-{2,5-bis[(3-chlorobenzyl)oxy]phenyl}methylidene)amino]oxy}acetic acid], the inhibition at 100 µM amounted to 85%. Turning to `O=C(O)CO/N=C/c1cc(OCc2cccc(Br)c2)ccc1OCc1cccc(Br)c1` [Compound 158, {[((1E)-{2,5-bis[(3-bromobenzyl)oxy]phenyl}methylidene)amino]oxy}acetic acid], the inhibition at 100 µM is 69%. `Cc1cccc(COc2ccc(OCc3cccc(C)c3)c(/C=N/OCC(=O)O)c2)c1` [Compound 159, {[((1E)-{2,5-bis[(3-methylbenzyl)oxy]phenyl}methylidene)amino]oxy}acetic acid]: the inhibition at 100 µM was 69%. In the case of `Cc1ccc(COc2ccc(OCc3ccc(C)cc3)c(/C=N/OCC(=O)O)c2)cc1` [Compound 160, {[((1E)-{2,5-bis[(4-methylbenzyl)oxy]phenyl}methylidene)amino]oxy}acetic acid], the inhibition at 100 µM amounted to 76%. On to `O=C(O)CO/N=C/c1cc(OCc2ccc(F)c(F)c2)ccc1OCc1ccc(F)c(F)c1` [Compound 161, {[((1E)-{2,5-bis[(3,4-difluorobenzyl)oxy]phenyl}methylidene)amino]oxy}acetic acid], for which the inhibition at 100 µM was 92%. As to `CC(C)(C)c1ccc(OCC#Cc2ccc(/C=N/OCC(=O)O)cc2)cc1` [Compound 162, {[((1E)-{4-[3-(4-tert-butylphenoxy)prop-1-ynyl]phenyl}methylidene)amino]oxy}acetic acid], the inhibition at 100 µM worked out at 51%. As to `O=C(O)CO/N=C/c1ccc(C#CCOc2ccc(Br)cc2)cc1` [Compound 163, {[((1E)-{4-[3-(4-bromophenoxy)prop-1-ynyl]phenyl}methylidene)amino]oxy}acetic acid], the inhibition at 100 µM is 65%. Still for that read-out and setting: the value for `O=C(O)CO/N=C/c1ccc(C#CCOc2cc(C(F)(F)F)cc(C(F)(F)F)c2)cc1` [Compound 164, ({[(1E)-(4-{3-[3,5-bis(trifluoromethyl)phenoxy]prop-1-ynyl}phenyl)methylidene]amino}oxy) acetic acid] was 73%; that for `O=C(O)CO/N=C/c1ccc(C#CCOc2cc(Cl)cc(Cl)c2)cc1` [Compound 165, {[((1E)-{4-[3-(3,5-dichlorophenoxy)prop-1-ynyl]phenyl}methylidene)amino]oxy}acetic acid] was 68%.

On to `O=C(O)CO/N=C/c1ccc(C#CCOc2cccc(Cl)c2)cc1` [Compound 166, {[((1E)-{4-[3-(3-chlorophenoxy)prop-1-ynyl]phenyl}methylidene)amino]oxy}acetic acid], for which the inhibition at 100 µM is 42%. With `CC(C)Cc1ccc(OCC#Cc2ccc(/C=N/OCC(=O)O)cc2)cc1` [Compound 167, {[((1E)-{4-[3-(4-isobutylphenoxy)prop-1-ynyl]phenyl}methylidene)amino]oxy}acetic acid], the inhibition at 100 µM is 53%. Same read-out and setting: as for `CC(C)(C)c1ccc(OCC#Cc2cccc(/C=N/OCC(=O)O)c2)cc1` [Compound 168, {[((1E)-{3-[3-(4-tert-butylphenoxy)prop-1-ynyl]phenyl}methylidene)amino]oxy}acetic acid], the figure is 52%. As to `O=C(O)CO/N=C/c1cccc(C#CCOc2ccc(Br)cc2)c1` [Compound 169, {[((1E)-{3-[3-(4-bromophenoxy)prop-1-ynyl]phenyl}methylidene)amino]oxy}acetic acid], the inhibition at 100 µM was determined as 60%.

On to `O=C(O)CO/N=C/c1cccc(C#CCOc2cc(C(F)(F)F)cc(C(F)(F)F)c2)c1` [Compound 170, ({[(1E)-(3-{3-[3,5-bis(trifluoromethyl)phenoxy]prop-1-ynyl}phenyl)methylidene]amino}oxy)acetic acid], for which the inhibition at 100 µM amounted to 73%. In the case of `O=C(O)CO/N=C/c1cccc(C#CCOc2cc(Cl)cc(Cl)c2)c1` [Compound 171, {[((1E)-{3-[3-(3,5-dichlorophenoxy)prop-1-ynyl]phenyl}methylidene)amino]oxy}acetic acid], the inhibition at 100 µM was 69%. `O=C(O)CO/N=C/c1cccc(C#CCOc2cccc(Cl)c2)c1` [Compound 172, {[((1E)-{3-[3-(3-chlorophenoxy)prop-1-ynyl]phenyl}methylidene)amino]oxy}acetic acid]: the inhibition at 100 µM is 44%. Consider `CC(C)Cc1ccc(OCC#Cc2cccc(/C=N/OCC(=O)O)c2)cc1` [Compound 173, {[((1E)-{3-[3-(4-isobutylphenoxy)prop-1-ynyl]phenyl}methylidene)amino]oxy}acetic acid], for which the inhibition at 100 µM was 56%.

Source of the values: patent US7411083B2, “Substituted acetic acid derivatives” (Wyeth, priority 2003, dated 2008).
